Laboratory results taken from patent publication US20240245657A1, “THIADIAZOLIDINONES FOR THEIR USE IN THE TREATMENT OF LIMB-GIRDLE MUSCULAR DYSTROPHY” (CONSEJO SUPERIOR DE INVESTIGACIONES CIENTÍFICAS, priority 2021, published 2024).

Columns and labels:
β-catenin = experiment: Western blot of total and active β-catenin in human primary myotubes (Wnt pathway activation); format: cell-based; details: day 8 of differentiation, 48 h; for active β-catenin: tideglusib 1.2 μM, LiCl 10 mM
Method: (§1) To obtain primary myoblasts, muscle biopsies were processed and cultured in monolayer according to the method described by Askanas (Neurology, 1975, 25, 58-67). To isolate the pure population of myoblasts and CD56-negative cells (CD56-), the protocol described previously (Jaka et al., Expert Reviews in Molecular Medicine, 2017, 19, e2) was used, using immunomagnetic separation based on the early presence of the surface marker CD56 (Miltenyi Biotec, 130-050-401).
(§2) Myoblasts were cultured in proliferation medium (DMEM, M-199, Insulin, Glutamine and penicillin-streptomycin) with 10% FBS and growth factors at 37° C. in 5% CO2 air incubator. When myoblasts reached confluence, the FBS concentration was reduced to 2% and growth factors were removed from the medium, promoting fusion and production of myotubes.
(§3) Tideglusib was provided by Dr. Ana Martínez (from The Center for Biological Research, CSIC). It was administered at 1.2 μM, whereas LiCI (Sigma-Aldrich, L7026) was used for comparative purposes at a final concentration of 10 mM. Tideglusib and LiCI were administered at the above referred concentrations to myotubes at eight days of differentiation, and tideglusib also to skin fibroblasts and to CD56-cells. Negative controls, in the case of tideglusib, were performed with DMSO (Fisher Scientific, BP-231). At 48 hours after drug administration, RNA and proteins were extracted.
(§4) Protein collection from muscle samples and cell cultures, as well as Western blot procedure, were performed as previously described (Jaka et al., Expert Reviews in Molecular Medicine, 2017, 19, e2).

RPS6 = experiment: Western blot of P-RPS6 (Ser235/Ser236) in human primary myotubes (controls and LGMDR1 patients); format: cell-based; details: 48 h; for P-RPS6 (S235-S236), Western blot densitometry: LiCl 10 mM; for P-RPS6 (S235-S236), protein expression value relative to the same sample without treatment: tideglusib 1.2 μM
Method: as §1, §2, §3, §4

GSK3β [1] = details: low dose of LiCl treatment; cited from earlier work
FRBZ gene, β1D integrin = details: primary myotubes, LiCl treatment; cited from earlier work
GSK3 = details: low therapeutic dose of lithium (0.5 mM); cited from earlier work
p70S6K = experiment: Western blot of p70S6K and its phosphorylated forms in human primary myotubes (controls and LGMDR1 patients); format: cell-based; details: 48 h; for P-p70S6K (T389), protein expression value relative to the same sample without treatment / P-p70S6K (T421-S424), protein expression value relative to the same sample without treatment: tideglusib 1.2 μM
Method: as §1, §2, §3, §4

CD56-cells = experiment: Western blot of Wnt and mTOR pathway proteins in CD56- cells from muscle; format: cell-based, human; details: 1.2 μM, 48 h
Source text: (§5) To obtain primary myoblasts, muscle biopsies were processed and cultured in monolayer according to the method described by […] (Neurology, 1975, 25, 58-67). To isolate the pure population of myoblasts and CD56-negative cells (CD56-), the protocol described previously (Jaka et al., Expert Reviews in Molecular Medicine, 2017, 19, e2) was used, using immunomagnetic separation based on the early presence of the surface marker CD56 (Miltenyi Biotec, 130-050-401). Tideglusib was provided by Dr. Ana Martínez (from The Center for Biological Research, CSIC). It was administered at 1.2 μM, whereas LiCI (Sigma-Aldrich, L7026) was used for comparative purposes at a final concentration of 10 mM. Tideglusib and LiCI were administered at the above referred concentrations to myotubes at eight days of differentiation, and tideglusib also to skin fibroblasts and to CD56-cells. Negative controls, in the case of tideglusib, were performed with DMSO (Fisher Scientific, BP-231). At 48 hours after drug administration, RNA and proteins were extracted. Protein collection from muscle samples and cell cultures, as well as Western blot procedure, were performed as previously described (Jaka et al., Expert Reviews in Molecular Medicine, 2017, 19, e2).

[2] = test system: CAPN3, FOS, ANOS1 and ITGB1BP2 genes; experiment: Quantitative real-time PCR of deregulated genes in LGMDR1 myotubes; format: cell-based, human; details: 1.2 μM, 48 h
Method: Tideglusib was provided by Dr. Ana Martínez (from The Center for Biological Research, CSIC). It was administered at 1.2 μM, whereas LiCI (Sigma-Aldrich, L7026) was used for comparative purposes at a final concentration of 10 mM. Tideglusib and LiCI were administered at the above referred concentrations to myotubes at eight days of differentiation, and tideglusib also to skin fibroblasts and to CD56-cells. Negative controls, in the case of tideglusib, were performed with DMSO (Fisher Scientific, BP-231). At 48 hours after drug administration, RNA and proteins were extracted. RNA extraction from primary myoblast/myotubes was performed with an RNeasy Mini Kit (Qiagen). In the case of the muscle biopsies, which were snap frozen and stored at −80° C. until use, total RNA was obtained using an RNA-Plus Kit (QBiogene). The isolated RNA was reverse-transcribed to first-strand complementary DNA (cDNA) in a final volume of 50 μl using a High Capacity cDNA Reverse Transcription Kit (Applied Biosystems), according to the manufacturer's instructions. The expression levels of CAPN3, FOS, ITGB1BP2, ANOS1 and GAPDH genes in the samples were assessed by real-time quantitative PCR with TaqMan probes (Table Il below) using the ‘CFX384 Real-Time PCR Detection System’ (Bio-Rad).

integrin β1D and melusin = experiment: Western blot of structural (costamere) proteins in human myotubes; format: cell-based; details: 1.2 μM, 48 h
Method: as §5, with “130-050-401). Myoblasts were cultured in proliferation medium (DMEM, M-199, Insulin, Glutamine and penicillin-streptomycin) with 10% FBS and growth factors at 37° C. in 5% CO2 air incubator. When myoblasts reached confluence, the FBS concentration was reduced to 2% and growth factors were removed from the medium, promoting fusion and production of myotubes.” for “130-050-401).”, “Protein collection from muscle samples and cell cultures, as well as Western blot procedure, were performed as previously described (Jaka et al., Expert Reviews in Molecular Medicine, 2017, 19, e2).” left out

mTOR = experiment: Western blot of mTOR and P-mTOR in human primary myotubes; format: cell-based; details: LGMDR1 patient's myotubes, 1.2 μM, 48 h
Method: as §5, with “130-050-401). Myoblasts were cultured in proliferation medium (DMEM, M-199, Insulin, Glutamine and penicillin-streptomycin) with 10% FBS and growth factors at 37° C. in 5% CO2 air incubator. When myoblasts reached confluence, the FBS concentration was reduced to 2% and growth factors were removed from the medium, promoting fusion and production of myotubes.” for “130-050-401).”

skin fibroblasts = experiment: Western blot of Wnt and mTOR pathway proteins in skin fibroblasts; format: cell-based, human; details: 1.2 μM, 48 h
Method: Skin fibroblasts from healthy controls and from LGMDR1 patients were provided by Dr. Ana Aiastui (Biodonostia Health Research Institute, Cell Culture and Histology Platform). Cells were cultured in Dulbecco's modified Eagle's medium (DMEM, Gibco, 41966-029) supplemented with 10% FBS (Gibco, 10270-106) and 1% penicillin-streptomycin (Gibco, 15140-122) at 37° C. in a 5% CO2 air incubator. Human fibroblasts were cultured at a density of 4×10^4 cells/ml. Tideglusib was provided by Dr. Ana Martínez (from The Center for Biological Research, CSIC). It was administered at 1.2 μM, whereas LiCI (Sigma-Aldrich, L7026) was used for comparative purposes at a final concentration of 10 mM. Tideglusib and LiCI were administered at the above referred concentrations to myotubes at eight days of differentiation, and tideglusib also to skin fibroblasts and to CD56-cells. Negative controls, in the case of tideglusib, were performed with DMSO (Fisher Scientific, BP-231). At 48 hours after drug administration, RNA and proteins were extracted. Protein collection from muscle samples and cell cultures, as well as Western blot procedure, were performed as previously described (Jaka et al., Expert Reviews in Molecular Medicine, 2017, 19, e2).

GSK3β [3] = experiment: Western blot of GSK3β and P-GSK3β (Ser9) in human primary myotubes; format: cell-based; details: LGMDR1 patients' myotubes, day 8 of differentiation, 1.2 μM, 48 h
Method: To isolate the pure population of myoblasts and CD56-negative cells (CD56-), the protocol described previously (Jaka et al., Expert Reviews in Molecular Medicine, 2017, 19, e2) was used, using immunomagnetic separation based on the early presence of the surface marker CD56 (Miltenyi Biotec, 130-050-401). Myoblasts were cultured in proliferation medium (DMEM, M-199, Insulin, Glutamine and penicillin-streptomycin) with 10% FBS and growth factors at 37° C. in 5% CO2 air incubator. When myoblasts reached confluence, the FBS concentration was reduced to 2% and growth factors were removed from the medium, promoting fusion and production of myotubes. Tideglusib was provided by Dr. Ana Martínez (from The Center for Biological Research, CSIC). It was administered at 1.2 μM, whereas LiCI (Sigma-Aldrich, L7026) was used for comparative purposes at a final concentration of 10 mM. Tideglusib and LiCI were administered at the above referred concentrations to myotubes at eight days of differentiation, and tideglusib also to skin fibroblasts and to CD56-cells. Negative controls, in the case of tideglusib, were performed with DMSO (Fisher Scientific, BP-231). At 48 hours after drug administration, RNA and proteins were extracted. […]

[4] = LGMDR1 patient's myotubes, 1.2 μM
[5] = myotubes of LGMDR1 patient 09-25

[Cl-].[Li+] [LiCl]
active β-catenin (β-catenin): increase
P-RPS6 (S235-S236), Western blot densitometry (RPS6; myotubes of LGMDR1 patient 09-21, same sample without drug 1.5): 1.5
P-RPS6 (S235-S236), Western blot densitometry (RPS6; myotubes of LGMDR1 patient 09-24, same sample without drug 3.5): 3
P-RPS6 (S235-S236), Western blot densitometry (RPS6; myotubes of LGMDR1 patient 09-25, same sample without drug 2.8): 2.5
P-RPS6 (S235-S236), Western blot densitometry (RPS6; myotubes of control 09-23, same sample without drug 3.0): 3.8
P-RPS6 (S235-S236), Western blot densitometry (RPS6; myotubes of control 13-07, same sample without drug 3): 3
GSK3β inhibition (GSK3β [1]): effective in inhibiting
fatigue resistance in some muscles via NFAT activation (GSK3β [1]): enhances
expression of the FRBZ gene (FRBZ gene, β1D integrin): lower levels
β1D adult isoform of the integrin (FRBZ gene, β1D integrin): higher levels
GSK3 inhibition (GSK3): inhibit
myoblast fusion (GSK3): augment
P-p70S6K (T421-S424), Western blot densitometry (p70S6K; LiCl 10 mM, myotubes of LGMDR1 patient 09-21, same sample without drug 0.3): 0.5
P-p70S6K (T421-S424), Western blot densitometry (p70S6K; LiCl 10 mM, myotubes of LGMDR1 patient 09-24, same sample without drug 1.8): 1.4
P-p70S6K (T421-S424), Western blot densitometry (p70S6K; LiCl 10 mM, myotubes of LGMDR1 patient 09-25, same sample without drug 0.7): 0.65
P-p70S6K (T421-S424), Western blot densitometry (p70S6K; LiCl 10 mM, myotubes of control 09-23, same sample without drug 0.8): 0.78
P-p70S6K (T421-S424), Western blot densitometry (p70S6K; LiCl 10 mM, myotubes of control 13-07, same sample without drug 0.8): 0.7
proteins involved in the mTOR pathway and their phosphorylation forms (p70S6K, RPS6) (p70S6K; control and LGMDR1 patient's myotubes, LiCl 10 mM): did not provide any increase

O=c1sn(-c2cccc3ccccc23)c(=O)n1Cc1ccccc1 [Tideglusib, 4-benzyl2-naphthalen-1-yl-[1,2,4]thiadiazolidine-3,5-dione]
total β-catenin expression (β-catenin; 1.2 μM): increase
active β-catenin (β-catenin): increase
active form of β-catenin (CD56-cells): no significant alteration
amount of total β-catenin (CD56-cells): no significant alteration
mTOR (CD56-cells): no differences
phosphorylation of RPS6 (CD56-cells): no differences
phosphorylation of p70S6K (CD56-cells): no differences
expression of ANOS1 gene [2]: increase
expression of CAPN3 gene [2]: increase
expression of FOS gene [2]: increase
expression of ITGB1BP2 gene [2]: increase
integrin β1D protein (integrin β1D and melusin): increase
melusin protein (integrin β1D and melusin): increase
phosphorylation of mTOR (Ser2448) (mTOR): significant increase
phosphorylation of mTOR (Ser2481) (mTOR): significant increase
total mTOR (mTOR): no significant changes
phosphorylation of RPS6 (Ser235/Ser236) (RPS6; [4]): increased
P-RPS6 (S235-S236), protein expression value relative to the same sample without treatment (RPS6; [5]): 1.6
P-RPS6 (S235-S236), protein expression value relative to the same sample without treatment (RPS6; myotubes of control 13-05): 0.8
active form of β-catenin (skin fibroblasts): did not show an increase
phosphorylation of GSK3β (Ser9) (skin fibroblasts): did not show an increase
phosphorylation of RPS6 (skin fibroblasts): decrease
β-catenin (skin fibroblasts): did not show an increase
amount of total GSK3β (GSK3β [3]): increases
phosphorylation of GSK3β (Ser9) (GSK3β [3]): increases
expression of total p70S6K (p70S6K; [4]): increased
phosphorylation of p70S6K (Thr389) (p70S6K; [4]): increased
phosphorylation of p70S6K (Thr421/Ser424) (p70S6K; [4]): increased
effect on p70S6K, its phosphorylation and P-RPS6 (p70S6K; control myotubes, 1.2 μM): very slight
P-p70S6K (T389), protein expression value relative to the same sample without treatment (p70S6K; [5]): 1.8
P-p70S6K (T421-S424), protein expression value relative to the same sample without treatment (p70S6K; [5]): 1.8
P-p70S6K (T389), protein expression value relative to the same sample without treatment (p70S6K; myotubes of control 13-05): 0.85
P-p70S6K (T421-S424), protein expression value relative to the same sample without treatment (p70S6K; myotubes of control 13-05): 0.8
